According to patent publication US20260028354A1, “TETRAHYDRONAPHTHALENE DERIVATIVES AS ESTROGEN RECEPTOR DEGRADERS” (REGENT OF THE UNIVERSITY OF MICHIGAN, priority 2022, published 2026):
Read-outs that look alike come from different tables or passages of the source.

Key:
CRBN/DDB1 = CRBN/DDB1 (Homo sapiens (Human), UniProt Q96SW2); assay type: binding; conditions: His tagged CRBN+DDB1, Cy5-labeled Thalidomide probe, one hour; read-out: CRBN HTRF IC50
Experimental: The binding potency was determined using HTRF assay technology (Perkin Elmer). Compounds were serially diluted in DMSO and […] volume was transferred to white 384-well plate.

ERα_LBD (GST) = ERα_LBD (GST) (Homo sapiens (Human), UniProt P03372); assay: IC50 measurements for binding to ERα_LBD (GST), LanthaScreen TR-FRET competitive binding; conditions: ERα_LBD (GST) 4 nM, Fluormone ES2 Green tracer, 60 min; read-out: ERα HTRF IC50
Chain of ERα_LBD (GST) (P03372 311-547): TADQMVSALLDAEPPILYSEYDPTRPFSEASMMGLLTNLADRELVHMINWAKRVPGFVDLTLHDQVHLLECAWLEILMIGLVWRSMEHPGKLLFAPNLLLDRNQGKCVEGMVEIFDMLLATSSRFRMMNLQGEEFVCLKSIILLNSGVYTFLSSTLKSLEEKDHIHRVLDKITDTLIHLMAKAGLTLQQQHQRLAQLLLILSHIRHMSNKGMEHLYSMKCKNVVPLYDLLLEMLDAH
Method in brief: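 Competitive TR-FRET displacement of Fluormone ES2 Green tracer (3 nM) from GST-tagged human ERα LBD (4 nM) with Tb anti-GST (2 nM), in nuclear receptor buffer K plus 5 mM DTT, 1% DMSO. 60 min at room temperature, dark; 520/495 nm ratio vs log[compound] fitted sigmoidally for IC50.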

ER in MCF-7 cells = ER in MCF-7 cells (Homo sapiens (Human), UniProt P03372); assay: In-cell Western (ICW) ER degradation assay in MCF-7 cells; assay type: cell-based; conditions: for DC50: MCF-7, ER degradation, read-out: MCF7 DC50
Chain of ER in MCF-7 cells (P03372 whole entry): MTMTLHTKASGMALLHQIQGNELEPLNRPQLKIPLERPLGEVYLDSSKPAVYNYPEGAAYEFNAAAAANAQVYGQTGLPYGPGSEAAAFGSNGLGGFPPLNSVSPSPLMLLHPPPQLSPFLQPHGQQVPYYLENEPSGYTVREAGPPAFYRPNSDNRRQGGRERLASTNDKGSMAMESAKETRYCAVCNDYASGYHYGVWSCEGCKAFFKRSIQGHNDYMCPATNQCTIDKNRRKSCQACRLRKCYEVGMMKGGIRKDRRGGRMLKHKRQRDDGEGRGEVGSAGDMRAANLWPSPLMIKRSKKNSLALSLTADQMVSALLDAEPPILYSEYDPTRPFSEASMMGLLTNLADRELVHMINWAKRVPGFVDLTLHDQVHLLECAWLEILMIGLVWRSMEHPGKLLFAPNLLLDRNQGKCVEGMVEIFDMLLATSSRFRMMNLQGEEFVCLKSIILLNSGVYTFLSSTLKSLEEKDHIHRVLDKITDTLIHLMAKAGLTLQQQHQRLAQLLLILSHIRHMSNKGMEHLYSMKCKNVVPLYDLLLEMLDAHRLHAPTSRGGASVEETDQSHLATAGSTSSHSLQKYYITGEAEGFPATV

ER in T47D cells = ER in T47D cells (Homo sapiens (Human), UniProt P03372); assay: In-cell Western (ICW) ER degradation assay in T47D cells; assay type: cell-based; conditions: for DC50: ER degradation
Chain of ER in T47D cells (P03372 whole entry): as above

MCF-7 cells = assay: CellTiter-Glo (CTG) cell proliferation assay in MCF-7 cells; assay type: cell-based; conditions: MCF-7 cell proliferation
Description: CellTiter-Glo® (CTG) Assays in MCF-7 and T47D Cell Lines.
In vitro Assay: MCF-7 and T47D CTG assay

[1] = MCF7, MCF-7, maximal ER degradation, 16 hrs treatment, read-out: MCF7 Dmax
[2] = maximal ER degradation, 16 hrs treatment, read-out: T47D Dmax
[3] = Homo sapiens, MCF7, 144 h, Day 6
[4] = MCF7, read-out: MCF7 Dmax, MCF-7, maximal ER degradation, 16 hrs treatment
[5] = read-out: T47D Dmax, T47D, maximal ER degradation, 16 hrs treatment

Chain of CRBN/DDB1 (Q96SW2 whole entry, species assumed): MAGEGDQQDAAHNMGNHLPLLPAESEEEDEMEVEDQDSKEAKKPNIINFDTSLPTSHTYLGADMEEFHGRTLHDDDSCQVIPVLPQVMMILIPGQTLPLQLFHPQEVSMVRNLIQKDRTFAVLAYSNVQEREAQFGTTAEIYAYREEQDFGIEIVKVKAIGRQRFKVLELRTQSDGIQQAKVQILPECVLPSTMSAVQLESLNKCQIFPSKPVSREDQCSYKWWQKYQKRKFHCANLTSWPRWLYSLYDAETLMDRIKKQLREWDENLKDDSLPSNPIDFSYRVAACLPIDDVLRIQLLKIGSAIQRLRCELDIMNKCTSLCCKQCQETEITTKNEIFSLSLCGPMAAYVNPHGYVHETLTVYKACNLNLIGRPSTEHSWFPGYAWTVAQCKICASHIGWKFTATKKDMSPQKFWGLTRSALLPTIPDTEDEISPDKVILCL
Chain of CRBN/DDB1 (Q16531 whole entry partner, species assumed): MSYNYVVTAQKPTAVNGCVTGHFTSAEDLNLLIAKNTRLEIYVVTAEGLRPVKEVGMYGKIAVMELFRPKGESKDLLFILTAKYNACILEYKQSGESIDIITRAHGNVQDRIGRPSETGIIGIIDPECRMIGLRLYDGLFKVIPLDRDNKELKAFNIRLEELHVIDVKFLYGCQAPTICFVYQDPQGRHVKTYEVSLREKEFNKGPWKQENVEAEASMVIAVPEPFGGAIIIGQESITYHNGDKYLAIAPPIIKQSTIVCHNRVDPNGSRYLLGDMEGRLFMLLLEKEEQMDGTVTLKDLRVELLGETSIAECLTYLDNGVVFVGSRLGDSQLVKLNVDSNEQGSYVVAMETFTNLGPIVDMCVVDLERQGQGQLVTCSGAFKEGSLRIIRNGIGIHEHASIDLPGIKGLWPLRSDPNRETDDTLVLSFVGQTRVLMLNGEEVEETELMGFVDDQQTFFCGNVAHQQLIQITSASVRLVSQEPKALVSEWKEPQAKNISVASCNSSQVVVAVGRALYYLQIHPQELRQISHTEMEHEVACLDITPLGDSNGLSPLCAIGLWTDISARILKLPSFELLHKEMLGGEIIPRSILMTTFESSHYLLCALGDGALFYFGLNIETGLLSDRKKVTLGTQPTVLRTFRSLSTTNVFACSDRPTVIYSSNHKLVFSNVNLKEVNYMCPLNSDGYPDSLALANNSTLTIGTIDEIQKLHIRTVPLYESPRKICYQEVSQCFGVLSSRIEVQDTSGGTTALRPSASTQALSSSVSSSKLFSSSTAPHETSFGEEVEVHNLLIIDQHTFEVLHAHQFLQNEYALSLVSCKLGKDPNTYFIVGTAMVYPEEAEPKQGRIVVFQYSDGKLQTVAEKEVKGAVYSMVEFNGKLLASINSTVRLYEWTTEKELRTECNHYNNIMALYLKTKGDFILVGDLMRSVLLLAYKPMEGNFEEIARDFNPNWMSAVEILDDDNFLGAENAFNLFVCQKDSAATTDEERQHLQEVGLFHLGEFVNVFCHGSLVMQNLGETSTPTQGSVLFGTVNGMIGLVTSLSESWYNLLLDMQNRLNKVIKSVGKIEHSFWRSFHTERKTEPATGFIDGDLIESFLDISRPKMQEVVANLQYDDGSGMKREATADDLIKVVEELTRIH

| Compound | IC50 (CRBN/DDB1) [µM] | IC50 (ERα_LBD (GST)) [µM] | Dmax (ER in MCF-7 cells; [1]) [%] | DC50 (ER in MCF-7 cells; 16 hrs treatment) [µM] | DC50 (ER in T47D cells; 16 hrs treatment) [µM] | Dmax (ER in T47D cells; [2]) [%] | IC50 (MCF-7 cells; [3]) [µM] | Dmax (ER in MCF-7 cells; [4]) [%] | Dmax (ER in T47D cells; [5]) [%] | MCF7 Dmax (ER in MCF-7 cells; MCF-7, maximal ER degradation, 16 hrs treatment) | IC50 (MCF-7 cells; Day 6, read-out: MCF7 IC50) [µM] |
| --- | --- | --- | --- | --- | --- | --- | --- | --- | --- | --- | --- |
| O=C1CC[C@H](N2Cc3c(ccc4c3OC[C@H]3CN(C[C@H]5COC6(C5)CN(c5ccc([C@@H]7c8ccc(O)cc8CC[C@@H]7c7ccccc7)cc5)C6)CCN43)C2=O)C(=O)N1 (single isomer, unassigned) [Compound A68] | < 0.05 | < 0.01 | 50 to 75 | < 0.001 | < 0.001 | > 75 | 0.01 to 0.1 | – | – | – | – |
| COc1cc(N2CCC(CN3CCN4c5ccc6c(c5OC[C@@H]4C3)CN([C@@H]3CCC(=O)NC3=O)C6=O)CC2)ccc1[C@H]1c2ccc(O)cc2CC[C@H]1c1ccccc1 (stereo in doubt) [Compound A24, (R)-3-((S)-7-((1-(4-((1R,2R)-6-hydroxy-2-phenyl-1,2,3,4-tetrahydronaphthalen-1-yl)-3-methoxyphenyl)piperidin-4-yl)methyl)-1-oxo-1,3,5,5a,6,7,8,9-oCtahydro-2H-pyrazino [1′,2′:4,5][1,4]oxazino[2,3-e]isoindol-2-yl)piperidine-2,6-dione] | 0.05 to 0.5 | < 0.01 | > 75 | < 0.001 | < 0.001 | > 75 | 0.01 to 0.1 | – | – | – | – |
| O=C1CC[C@H](N2Cc3cc4c(cc3C2=O)OCC42CCN(C[C@@H]3COC4(CCN(c5ccc([C@H]6c7ccc(O)cc7CC[C@H]6c6ccccc6)cc5)CC4)C3)CC2)C(=O)N1 [Compound A25, (S)-3-(1′-(((R)-8-(4-((1S,2R)-6-hydroxy-2-phenyl-1,2,3,4-tetrahydronaphthalen-1-yl)phenyl)-1-oxa-8-azaspiro[4.5]decan-3-yl)methyl)-7-oxo-5,7-dihydro-2H,6H-spiro[furo[2,3-f]isoindole-3,4′-piperidin]-6-yl)piperidine-2,6-dione] | – | < 0.01 | – | < 0.001 | < 0.001 | – | < 0.01 | > 75 | > 75 | – | – |
| O=C1CC[C@H](N2Cc3c(ccc4c3OC[C@H]3CN(CC5CCN(c6ccc([C@@H]7c8ccc(O)cc8CC[C@@H]7c7ccccc7)cc6)CC5)CCN43)C2=O)C(=O)N1 [Compound A71, (S)-3-((R)-7-((1-(4-((1R,2S)-6-hydroxy-2-phenyl-1,2,3,4-tetra-hydronaphthalen-1-yl)phenyl)-piperidin-4-yl)methyl)-1-oxo-1,3,5,5a,6,7,8,9-octahydro-2H-pyrazino[1′,2′:4,5][1,4]oxazino [2,3-e]isoindol-2-yl)piperidine-2,6-dione] | 0.05 to 0.5 | < 0.01 | > 75 | < 0.001 | – | – | < 0.01 | – | – | – | – |
| O=C1CC[C@H](N2Cc3c(ccc4c3OCC43CCN(CC4CCC5(CC4)CN(c4ncc([C@@H]6c7ccc(O)cc7CC[C@@H]6c6ccccc6)cn4)C5)CC3)C2=O)C(=O)N1 [Compound A154, (S)-3-(1′-((2-(5-((1S,2S)-6-hydroxy-2-phenyl-1,2,3,4-tetrahydronaphthalen-1-yl)pyrimidin-2-yl)-2-azaspiro[3.5]nonan-7-yl)methyl)-6-oxo-6,8-dihydro-2H,7H-spiro[furo[2,3-e]isoindole-3,4′-piperidin]-7-yl)piperidine-2,6-dione] | < 0.05 | < 0.01 | – | < 0.001 | < 0.001 | – | – | 50 to 75 | > 75 | – | – |
| (S)-3-(1′-(((S)-2-(4-((1R,2S)-6- hydroxy-2-phenyl-1,2,3,4- tetrahydronaphthalen-1- yl)phenyl)-5-oxa-2- azaspiro[3.4]octan-7-yl)methyl)- 7-oxo-5,7-dihydro-2H,6H- spiro[furo[2,3-f]isoindole-3,4′- piperidin]-6-yl)piperidine-2,6- dione [Compound A76] | 0.05 to 0.5 | < 0.01 | – | < 0.001 | – | – | – | – | – | A (“A”: >=75%) | < 0.01 |
